The text below walks through data of patent US9890152B2 (Genentech, Inc., priority 2012, dated 2018).

Each structure is given as a SMILES string.

For the assay, the target named is T1, EGFR del746-750 T790M (Homo sapiens, UniProt P00533, DEL746-750/T790M).
T1 construct: purchased Carna Biosciences 08-528
T1 sequence (P00533 with tags, fused parts or gaps DEL746-750/T790M limits assumed): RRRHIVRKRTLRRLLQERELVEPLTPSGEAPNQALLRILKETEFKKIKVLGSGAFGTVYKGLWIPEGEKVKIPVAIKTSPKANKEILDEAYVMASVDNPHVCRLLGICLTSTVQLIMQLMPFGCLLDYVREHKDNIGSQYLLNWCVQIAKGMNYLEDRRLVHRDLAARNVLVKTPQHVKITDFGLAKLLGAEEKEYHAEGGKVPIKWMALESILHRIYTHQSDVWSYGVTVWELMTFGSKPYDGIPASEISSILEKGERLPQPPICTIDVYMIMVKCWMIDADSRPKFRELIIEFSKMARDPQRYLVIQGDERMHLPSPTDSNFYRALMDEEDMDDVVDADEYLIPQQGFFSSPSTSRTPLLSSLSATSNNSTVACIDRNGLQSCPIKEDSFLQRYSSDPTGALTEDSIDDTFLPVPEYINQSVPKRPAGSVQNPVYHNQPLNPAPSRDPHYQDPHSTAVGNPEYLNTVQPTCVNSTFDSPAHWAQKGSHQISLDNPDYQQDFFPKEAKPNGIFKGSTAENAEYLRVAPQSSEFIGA
Briefly: EGFR del746-750 T790M biochemical assay (Caliper mobility shift). As to conditions: 5 μM ATP, 30 min, room temperature; apparent Ki (Morrison) converted by Cheng-Prusoff, Km of ATP 2.1 μM; read-out: EGFR(T790M/d746-750) Ki.
In the case of `Cc1cn(CCO)nc1-c1cn(C(C)C)c2cc(Nc3ccnc(-c4cnn(S(=O)(=O)C5CC5)c4)n3)ncc12` [Example 253, 2-(3-(6-(2-(1-(Cyclopropylsulfonyl)-1H-pyrazol-4-yl)pyrimidin-4-ylamino)-1-isopropyl-1H-pyrrolo[3,2-c]pyridin-3-yl)-4-methyl-1H-pyrazol-1-yl)ethanol], the Ki was 1.82 nM.

Consider `CC(C)n1cc(-c2cnn(C3COC3)c2)c2cnc(Nc3ccnc(-c4cnn(S(=O)(=O)C5CC5)c4)n3)cc21` [Example 441, N-(2-(1-(cyclopropylsulfonyl)-1H-pyrazol-4-yl)pyrimidin-4-yl)-1-isopropyl-3-(1-(oxetan-3-yl)-1H-pyrazol-4-yl)-1H-pyrrolo[3,2-c]pyridin-6-amine], for which the Ki was found to be 0.8 nM.

In the case of `CC(C)n1cc(C(=O)NC2CCSCC2)c2cnc(Nc3ccnc(-c4cnn(S(=O)(=O)C5CC5)c4)n3)cc21` [Example 458, 6-(2-(1-(cyclopropylsulfonyl)-1H-pyrazol-4-yl)pyrimidin-4-ylamino)-1-isopropyl-N-(tetrahydro-2H-thiopyran-4-yl)-1H-pyrrolo[3,2-c]pyridine-3-carboxamide], the Ki was found to be 1.35 nM.

With `CC(C)CC(C)n1c(CO)nc2cnc(Nc3ccnc(-c4cnn(S(=O)(=O)C5CC5)c4)n3)cc21` (stereo not shown) [Example 478, (6-(2-(1-(cyclopropylsulfonyl)-1H-pyrazol-4-yl)pyrimidin-4-ylamino)-1-(4-methylpentan-2-yl)-1H-imidazo[4,5-c]pyridin-2-yl)methanol], the Ki was determined as 32.4 nM.

For the molecule `COC1CCN(c2nccc(Nc3cc4c(cn3)c(-c3cnn(CC(N)=O)c3)cn4C(C)C)n2)CC1` [Example 410, 2-(4-(1-isopropyl-6-((2-(4-methoxypiperidin-1-yl)pyrimidin-4-yl)amino)-1H-pyrrolo[3,2-c]pyridin-3-yl)-1H-pyrazol-1-yl)acetamide], the Ki is 4.86 nM.

`CO[C@H]1CCN(c2nccc(Nc3cc4c(cn3)nc(CO)n4C(C)C)n2)C[C@@H]1F` (racemic) [Example 527, (±)-{6-[2-((trans)-3-Fluoro-4-methoxypiperidin-1-yl)pyrimidin-4-ylamino]-1-isopropyl-1H-imidazo[4,5-c]pyridin-2-yl}methanol]: the Ki was 239 nM.

Consider `Cc1nc2cnc(Nc3ccnc(N4CC[C@H](C#N)C4)n3)cc2n1C(C)C` [Example 679], for which the Ki was 168 nM.

Take `CC(CC(F)(F)F)n1c(CO)nc2cnc(Nc3ccnc(-c4cnn(S(=O)(=O)C5CC5)c4)n3)cc21` (stereo not shown) [Example 696]: the Ki came out at 7.67 nM.

For `CC(C)n1c([C@H](C)O)nc2cnc(Nc3ccnc(-c4cnn(S(=O)(=O)C5CC5)c4)n3)cc21` [Example 562, (S)-1-{6-[2-(1-Cyclopropanesulfonyl-1H-pyrazol-4-yl)pyrimidin-4-ylamino]-1-isopropyl-1H-imidazo[4,5-c]pyridin-2-yl}ethanol], the Ki came out at 14 nM.

Take `Cc1nc2cnc(Nc3ccnc(N4CCC5(CCO5)CC4)n3)cc2n1C(C)C` [Example 495, N-(2-(1-Oxa-7-azaspiro[3.5]nonan-7-yl)pyrimidin-4-yl)-1-isopropyl-2-methyl-1H-imidazo[4,5-c]pyridin-6-amine]: the Ki stood at 71.7 nM.

As to `CCC(C)n1cc(C(=O)NC2CCN(C3COC3)CC2)c2cnc(Nc3ccnc(N4CC[C@H](O)[C@H](F)C4)n3)cc21` (mixture of isomers) [Example 389, 1-(sec-butyl)-6-((2-((3R,4S)-3-fluoro-4-hydroxypiperidin-1-yl)pyrimidin-4-yl)amino)-N-(1-(oxetan-3-yl)piperidin-4-yl)-1H-pyrrolo[3,2-c]pyridine-3-carboxamide], the Ki was found to be 4.03 nM.

Consider `CC(C)n1c(CO)nc2cnc(Nc3ccnc(N4CC[C@@](C)(O)[C@H](F)C4)n3)cc21` [Example 675], for which the Ki was determined as 112 nM.

Take `C[C@H](n1c([C@@H](C)O)nc2cnc(Nc3ccnc(N4CC[C@H](O)[C@H](F)C4)n3)cc21)C(F)(F)F` [Example 289, (3R,4S)-3-Fluoro-1-{4-[2-((R)-1-hydroxyethyl)-1-((S)-2,2,2-trifluoro-1-methylethyl)-1H-imidazo[4,5-c]pyridin-6-ylamino]pyrimidin-2-yl}-piperidin-4-ol]: the Ki was determined as 3.35 nM.

Turning to `Cc1nc2cnc(Nc3ccnc(N4CCC(S(C)(=O)=O)CC4)n3)cc2n1C(C)C` [Example 545, (1-Isopropyl-2-methyl-1H-imidazo[4,5-c]pyridin-6-yl)-[2-(4-methanesulfonylpiperidin-1-yl)pyrimidin-4-yl]amine], the Ki is 501 nM.

Take `CC(C)n1c(CO)nc2cnc(Nc3ccnc(N4CCC5(OCCO5)C(F)C4)n3)cc21` (stereo not shown) [Example 654]: the Ki was determined as 36 nM.

Take `CC[C@@H](C)n1cc(C(=O)NC2CCOCC2)c2cnc(Nc3ccnc(N4CC[C@H](OC)[C@H](F)C4)n3)cc21` (single isomer, unassigned) [Example 339]: the Ki was 4.12 nM.

`Cc1cc(-c2cn(C(C)C)c3cc(Nc4ccnc(-c5cnn(S(=O)(=O)C6CC6)c5)n4)ncc23)n(CCO)n1` [Example 436, 2-(5-(6-(2-(1-(cyclopropylsulfonyl)-1H-pyrazol-4-yl)pyrimidin-4-ylamino)-1-isopropyl-1H-pyrrolo[3,2-c]pyridin-3-yl)-3-methyl-1H-pyrazol-1-yl)ethanol]: the Ki came out at 1.18 nM.

Consider `CC(n1cc(C(=O)NC2CCOCC2)c2cnc(Nc3ccnc(N4CC[C@@H](O)[C@@H](F)C4)n3)cc21)C(F)(F)F` (single isomer, unassigned) [Example 640], for which the Ki amounted to 15.3 nM.

In the case of `CO[C@@H]1CCN(c2nccc(Nc3cc4c(cn3)nc(CO)n4C(C)C)n2)C[C@@H]1Cl` (racemic) [Example 634, (6-(2-((±)-(cis)-3-Chloro-4-methoxypiperidin-1-yl)pyrimidin-4-ylamino)-1-isopropyl-1H-imidazo[4,5-c]pyridin-2-yl)methanol], the Ki was 146 nM.

With `COc1nc2cnc(Nc3ccnc(N4CCC(OC)CC4)n3)cc2n1C(C)C` [Example 11, (1-Isopropyl-2-methoxy-1H-imidazo[4,5-c]pyridin-6-yl)-[2-(4-methoxypiperidin-1-yl)pyrimidin-4-yl]amine], the Ki was 98.4 nM.

Regarding `Cc1nc2cnc(Nc3ccnc(N4CC[C@H](O)[C@H](F)C4)n3)cc2n1C(C)C` (racemic) [Example 505, (±)-3-Fluoro-1-(4-((1-isopropyl-2-methyl-1H-imidazo [4,5-c]pyridin-6-yl)amino)pyrimidin-2-yl)piperidin-4-ol], the Ki came out at 42.8 nM.

With `CC(C)n1c(CO)nc2cnc(Nc3ccnc(N4CCC(C(F)(F)F)CC4)n3)cc21` [Example 512, (1-Isopropyl-6-((2-(4-(trifluoromethyl)piperidin-1-yl)pyrimidin-4-yl)amino)-imidazo[4,5-c]pyridin-2-yl)methanol], the Ki turned out to be 133 nM.

On to `CC(C)n1cnc2cnc(Nc3ccnc(N4CCCC(C(N)=O)C4)n3)cc21` (stereo not shown) [Example 66, 1-(4-(1-isopropyl-1H-imidazo[4,5-c]pyridin-6-ylamino)pyrimidin-2-yl)piperidine-3-carboxamide], for which the Ki was determined as 138 nM.

On to `CCC(C)n1cc(C(=O)NC2CCC(O)CC2)c2cnc(Nc3ccnc(-c4cnn(S(=O)(=O)C5CC5)c4)n3)cc21` (stereo not shown) [Example 705], for which the Ki came out at 2.37 nM.

Regarding `CCC(C)n1cc(C(=O)NC2CCN(C3COC3)CC2)c2cnc(Nc3ccnc(N4CC[C@@H](OC)[C@@H](F)C4)n3)cc21` (single isomer, unassigned) [Example 326], the Ki turned out to be 3.83 nM.
